The results in this text go back to PubChem BioAssay (NCI).

Among the test systems are COLO 205 colon; UACC-257 melanoma; OVCAR-8 ovarian; RXF 393 renal; CCRF-CEM leukemia; CAKI-1 renal; EKVX NSCLC; LOX IMVI melanoma; HCC-2998 colon; SR leukemia.
Assay in all cases: NCI-60 cell line screen, 48 h

Each structure is given as a SMILES string.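 These data come from cells grown in 96-well plates and exposed to compound for 48 hours at five concentrations. GI50 is the concentration that inhibits growth by half. The concentration for full growth arrest is given as TGI.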

Regarding `COc1ccc2c(c1)/C(=C\c1c(Cl)[nH]c3ccc(OC)cc13)C(=O)N2`, the GI50 in the assay on COLO 205 colon was 18.9 µM; in the assay on UACC-257 melanoma it was 37.3 µM; in the assay on OVCAR-8 ovarian, 34.1 µM; in the assay on RXF 393 renal, greater than 100 µM; in the assay with CCRF-CEM leukemia, 32.5 µM; in the assay on CAKI-1 renal, greater than 100 µM. In addition, the GI50 with EKVX NSCLC is 84.7 µM; with LOX IMVI melanoma, 25.8 µM. For the same compound, the TGI with COLO 205 colon is 39.8 µM; with UACC-257 melanoma, greater than 100 µM; in the assay on OVCAR-8 ovarian, greater than 100 µM; in the assay on RXF 393 renal, greater than 100 µM; in the assay with CCRF-CEM leukemia, greater than 100 µM; with CAKI-1 renal it was greater than 100 µM. Moreover, the TGI was greater than 100 µM in the assay with EKVX NSCLC and 54.3 µM in the assay with LOX IMVI melanoma.

Take `CCN(CC)C(=S)SC`: the TGI in the assay on COLO 205 colon, with UACC-257 melanoma, in the assay on OVCAR-8 ovarian, in the assay on RXF 393 renal, with CCRF-CEM leukemia and in the assay with EKVX NSCLC was greater than 100 µM throughout. Moreover, the TGI in the assay on LOX IMVI melanoma and with HCC-2998 colon was greater than 100 µM throughout.

On to `CCOC(=O)/C=C/C1=C(c2cccs2)c2ccccc2CC1`, for which the GI50 is 17 µM in the assay with COLO 205 colon; 21.2 µM in the assay on UACC-257 melanoma; 30.5 µM in the assay with OVCAR-8 ovarian; 19.5 µM with RXF 393 renal; 27.3 µM in the assay on CCRF-CEM leukemia; 43.1 µM in the assay on CAKI-1 renal. Further, the GI50 in the assay on EKVX NSCLC was 27.8 µM; in the assay with LOX IMVI melanoma it was 15.9 µM; with HCC-2998 colon, 28.2 µM. The TGI with COLO 205 colon was 46.3 µM; in the assay on UACC-257 melanoma, 53.7 µM; with OVCAR-8 ovarian, greater than 100 µM; with RXF 393 renal, 41.3 µM; in the assay on CCRF-CEM leukemia, 73.1 µM; in the assay on CAKI-1 renal, greater than 100 µM. Moreover, the TGI in the assay with EKVX NSCLC turned out to be 86.7 µM; with LOX IMVI melanoma, 30 µM; in the assay on HCC-2998 colon, 64.7 µM.

Consider `CC[PH+](CC)CC.O=COC1OC([S-])C(OC=O)C(OC=O)C1OC=O.[Au+]` (stereo not given), for which the GI50 in the assay with COLO 205 colon was 2.23 µM; in the assay on UACC-257 melanoma, 1.19 µM; with OVCAR-8 ovarian, 2.13 µM; with RXF 393 renal, 1.35 µM; in the assay with CCRF-CEM leukemia, 0.64 µM; with CAKI-1 renal, 1.71 µM. The GI50 was 1.74 µM in the assay on EKVX NSCLC, 0.902 µM with LOX IMVI melanoma and 1.6 µM with HCC-2998 colon. Moreover, the TGI turned out to be 4.7 µM in the assay on COLO 205 colon; 3.29 µM in the assay on UACC-257 melanoma; 5.55 µM in the assay on OVCAR-8 ovarian; 2.72 µM in the assay on RXF 393 renal; 4.1 µM with CCRF-CEM leukemia; 3.08 µM in the assay with CAKI-1 renal. Further, the TGI is 3.32 µM with EKVX NSCLC, 2.41 µM in the assay with LOX IMVI melanoma and 3.03 µM in the assay with HCC-2998 colon.

In the case of `Cc1cccc(C)c1NC(=O)C1C(=O)N(c2c(C)cccc2C)C(=O)/C1=N\NC(N)=S` (stereo not given), the TGI with UACC-257 melanoma, in the assay on OVCAR-8 ovarian, in the assay with RXF 393 renal, in the assay with CCRF-CEM leukemia, in the assay on EKVX NSCLC and in the assay on HCC-2998 colon was greater than 100 µM each time.

For the compound `CCCCN(CCCC)c1c([N+](=O)[O-])c(=O)nc2ccccn12`, the TGI in the assay on COLO 205 colon was greater than 100 µM; in the assay with OVCAR-8 ovarian it was 94.6 µM; with CCRF-CEM leukemia it was greater than 100 µM; in the assay on EKVX NSCLC, 94.1 µM; in the assay on SR leukemia it was greater than 100 µM.

As for `C[C@]12CCCC(=O)C1(O)C[C@H](C(=O)O)CC2` (stereo not given in full), the TGI in the assay on COLO 205 colon, with UACC-257 melanoma, in the assay on OVCAR-8 ovarian, in the assay with CCRF-CEM leukemia, with CAKI-1 renal and in the assay on LOX IMVI melanoma was greater than 100 µM in each case. The TGI in the assay with HCC-2998 colon and with SR leukemia was greater than 100 µM each time.

Consider `O=C1C(c2ccccc2)=[N+]([O-])c2ccccc21`, for which the TGI in the assay with COLO 205 colon was 29.7 µM; in the assay with UACC-257 melanoma, 26.1 µM; with OVCAR-8 ovarian it was 32.6 µM; in the assay on CCRF-CEM leukemia it was greater than 100 µM; in the assay on EKVX NSCLC, 35.4 µM; with LOX IMVI melanoma, 14.2 µM. For the same compound, the TGI with HCC-2998 colon was 38.8 µM; in the assay with SR leukemia it was 23.5 µM.

Consider `N.N.N.N.O=C([O-])C(Cl)Cl.O=C([O-])C(Cl)Cl.[Co+3].[O-][Cl+3]([O-])([O-])[O-]`, for which the GI50 with COLO 205 colon, in the assay on UACC-257 melanoma, in the assay on OVCAR-8 ovarian, in the assay with CCRF-CEM leukemia, with EKVX NSCLC and in the assay with LOX IMVI melanoma was greater than 100 µM throughout. Also, the GI50 in the assay on HCC-2998 colon was greater than 100 µM. The TGI in the assay on COLO 205 colon, in the assay on UACC-257 melanoma, in the assay with OVCAR-8 ovarian, in the assay on CCRF-CEM leukemia, with EKVX NSCLC and in the assay with LOX IMVI melanoma was greater than 100 µM throughout. In addition, the TGI in the assay with HCC-2998 colon was greater than 100 µM.

Turning to `Cc1ccccc1C1=C(C(=O)Nc2ccc(Cl)c(Cl)c2)NC(=S)NC1N` (stereo not given), the TGI in the assay on COLO 205 colon, with UACC-257 melanoma, in the assay with OVCAR-8 ovarian, in the assay on RXF 393 renal, with CCRF-CEM leukemia and with CAKI-1 renal was greater than 100 µM in each case. Moreover, the TGI with EKVX NSCLC and in the assay on LOX IMVI melanoma was greater than 100 µM in each case.

On to `COc1ccc(/C=C\c2cc(OC)c(O[Si](C)(C)C(C)(C)C)c(OC)c2)cc1`, for which the TGI in the assay on COLO 205 colon was greater than 100 µM; in the assay on UACC-257 melanoma, 62.4 µM; in the assay with OVCAR-8 ovarian, greater than 100 µM; with CCRF-CEM leukemia it was 49.8 µM; in the assay on CAKI-1 renal, greater than 100 µM; in the assay with EKVX NSCLC it was greater than 100 µM. For the same compound, the TGI in the assay on HCC-2998 colon is greater than 100 µM; in the assay with SR leukemia it was 56.2 µM.

For `O=C(c1ccncc1)n1nc(-c2ccccc2)c(N=Nc2ccccc2[N+](=O)[O-])c1-c1ccccc1`, the TGI in the assay on COLO 205 colon, with UACC-257 melanoma, in the assay on OVCAR-8 ovarian, in the assay with CCRF-CEM leukemia, in the assay with CAKI-1 renal and in the assay on EKVX NSCLC was greater than 100 µM each time. The TGI in the assay on HCC-2998 colon and with SR leukemia was greater than 100 µM throughout.
